Laboratory results from US20220184037A1, “PHARMACEUTICAL AGENTS TARGETING CANCER STEM CELLS” (THE JOHNS HOPKINS UNIVERSITY, priority 2020, published 2022).

What was measured:
let-7 = let-7 expression by Q-RT-PCR; type: cell-based, human; conditions: parental or spheroid bladder cancer cells
Protocol: (§1) Total RNA from cell lines was isolated using the RNeasy Plus Mini kit (Qiagen, Valencia, USA) according to the manufacturer's protocol. Total RNA extraction from bladder tissue was performed with the QIAzol Lysis Reagent (Qiagen) followed by phenol extraction and ethanol precipitation. Total RNA was eluted in DEPC treated water and stored at −80 ° C. Total RNA extraction from urine was performed using the MirVana miRNA Isolation Kit (Ambion, Austin, USA). These total RNA were converted to cDNA using the SuperScript III First-Strand Synthesis System (Life technologies, Carlsbad, USA), which was then used as a template for Q-RT-PCR. Q-RT-PCR was performed using the Fast SYBR Green Master Mix (Thermo Fisher Scientific, Waltham, USA) on a 7900HT Fast Real-Time PCR System (Life technologies) in triplicate. Micro RNA (miRNA) extraction was performed using the MirVana miRNA Isolation Kit, and was reverse transcribed using TaqMan reverse transcription kit (Applied Biosystems, Foster City, USA) and miRNA-specific RT primers provided with TaqMan microRNA assays (Applied Biosystems). Q-RT-PCR for miRNAs was performed using the TaqMan Universal PCR Master Mix according to the manufacturer's protocol. SDS software (Applied Biosystems) was used to determine cycle threshold (Ct) values. Expression level was quantified relative to β-actin for mRNA and RNU6B for miRNA using the 2-ΔΔCt method (12).
For demethylation, cells (1×10^6/T-75 flask) were treated with […] of the demethylating agent 5-Aza-dC (Sigma) dissolved in 50% acetic acid or were mock-treated with phosphate buffered saline (PBS) including the same amount of acetic acid every 24 hours for 5 days. When combined with the histone deacetylase inhibitor TSA (Sigma), 300 nmol/L TSA was added to the medium for the final 24 hours.

[1] = tested on: let-7 host gene MIRLET7BHG promoter; assay: Bisulfite sequencing of let-7 host gene promoter methylation; type: cell-based, human; conditions: 10 μM celecoxib, 2 μM PGE2, or 5 μM 5-Aza-dC for 5 days
Protocol: Cell pellets were digested with 1% sodium dodecyl sulfate and 50 μg/mL proteinase K (Roche, Nutley, USA) at 48° C. overnight. Isolation of genomic DNA from cell lines was performed with the phenol-chloroform extraction protocol followed by ethanol precipitation. Bisulfite treatment was conducted using an EpiTect Bisulfite K ft (QIAGEN, Valencia, USA), and was subsequently amplified via PCR using primers as shown in the following table. PCR products were purified using the QIAquick Gel Extraction kit (Qiagen), and sequenced by Genewiz DNA sequencing service (Genewiz, South Plainfield, USA). The data were analyzed using the Sequence Scanner v1.0 software (Life technologies). A methylation frequency of ≥50% of total CpG sites within the amplified region was considered “methylation-positive”. For demethylation, cells ([…]) dissolved in 50% acetic acid or were mock-treated with phosphate buffered saline (PBS) including the same amount of acetic acid every 24 hours for 5 days. When combined with the histone deacetylase inhibitor TSA (Sigma), 300 nmol/L TSA was added to the medium for the final 24 hours.

[2] = tested on: panel of miRNAs in BFTC 905 cells; assay: Expression of a panel of miRNAs; type: cell-based, human; conditions: COX2 inhibitor
Protocol: as §1

[3] = tested on: xenograft tumors that acquired resistance to erlotinib (5637 cells); assay: In vivo therapeutic efficacy in tumors with acquired resistance to erlotinib; set-up: species or system mice; conditions: western blotting (FIG. 7G)
Protocol: For therapeutic efficacy, mice were randomly assigned into experimental groups (five mice per group) when tumors reached a volume of […]. For celecoxib and/or VP treatment, celecoxib (5 mg/kg) was administered via intraperitoneal (i.p.) injection once a day (17), and VP (50 mg/kg) was administered via i.p. every other day (18). EP4 antagonist ONO-AE3-208 (10 mg/kg) was administered via i.p. once a day (19). Control was applied with same volume (10 μL per injection) of 10% dimethyl sulphoxide in 1% TWEEN 80 (Sigma-Aldrich). For GEM and CDDP (GC) treatment (i.p.), CDDP (6 mg/kg) was only applied after the first GEM (60 mg/kg) treatment on day 2, followed by three consecutive treatments of GEM on day 5, 8 and 11 (17). The next cycle was started on day 18, and the treatment was continued until tumor reached 2 cm in diameter. For erlotinib treatment, the mice were treated once a day, 6 days per week, by oral gavage with erlotinib (100 mg/kg) or control (PBS containing 0.5% methyl cellulose (Sigma-Aldrich) and 0.1% TWEEN 80) (20). Tumor size was measured at least every three days. Therapeutic efficacy was assessed using percentage change after treatment related to tumor size before treatment. […]

Structure (SMILES) | let-7 expression (let-7) | promoter methylation of the let-7 host gene [1] | expression of several miRNAs [2] | EGFR-MAPK signaling in xenograft tumors [3]
Cc1ccc(-c2cc(C(F)(F)F)nn2-c2ccc(S(N)(=O)=O)cc2)cc1 [celecoxib, Celecoxib] | restoration of let-7 expression | demethylated | induced expression | –
C#Cc1cccc(Nc2ncnc3cc(OCCOC)c(OCCOC)cc23)c1 [erlotinib, Erlotinib] | – | – | – | remained suppressed
